Among the test systems are HCT-116 colon; HOP-92 NSCLC; KM12 colon; PC-3 prostate; SK-MEL-28 melanoma; SN12C renal; SR leukemia; TK-10 renal; U251 CNS; UACC-62 melanoma.
Assay in all cases: NCI-60 cell line screen, 48 h

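Interpolation was linear, between the two tested concentrations surrounding the appropriate level; five concentrations were tested over 48 hours in 96-well plates. Abbreviation: GI50, concentration required for 50% inhibition of growth. Definition used: TGI = concentration required for complete inhibition of growth.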 Bounds are passed on as bounds.

For `CC(C)c1cnc(-c2cc(Cl)ccc2F)cc1Nc1ccncc1C(=O)NC(CO)CO`, the GI50 in the experiment on HCT-116 colon is 12500 nM; in the experiment with HOP-92 NSCLC it was 1330 nM; in the experiment with KM12 colon it was 17700 nM; with PC-3 prostate it was 13800 nM; with SK-MEL-28 melanoma, 16.9 µM; with SN12C renal, 8130 nM. Further, the GI50 is 16200 nM in the experiment on SR leukemia, 10.8 µM in the experiment with TK-10 renal, 14900 nM with U251 CNS and 15100 nM with UACC-62 melanoma. Also, the TGI in the experiment with HCT-116 colon is 28.5 µM; with HOP-92 NSCLC it was 35.4 µM; in the experiment on KM12 colon, 37.4 µM; in the experiment on PC-3 prostate it was 32.6 µM; with SK-MEL-28 melanoma, 32.8 µM; with SN12C renal it was 23.7 µM. Also, the TGI with SR leukemia amounted to 53.7 µM; in the experiment on TK-10 renal, 56 µM; in the experiment on U251 CNS it was 33.9 µM; in the experiment on UACC-62 melanoma it was 29 µM.
Regarding `CS(=O)(=O)Nc1cc(-c2ccc3ncc(C#N)c(Nc4ccc(F)c(Cl)c4)c3c2)cnc1Cl`, the GI50 in the experiment with HCT-116 colon was 48.6 nM; in the experiment on HOP-92 NSCLC it was 33.3 nM; in the experiment with KM12 colon, 276 nM; in the experiment with PC-3 prostate, 197 nM; with SK-MEL-28 melanoma, 0.133 µM; in the experiment on SN12C renal, 133 nM. Moreover, the GI50 with SR leukemia is 161 nM; in the experiment on TK-10 renal, 0.166 µM; in the experiment on U251 CNS, 98 nM; with UACC-62 melanoma, 73 nM. Moreover, the TGI in the experiment with HOP-92 NSCLC was 0.61 µM; with KM12 colon it was 1.91 µM; in the experiment on PC-3 prostate, 10.6 µM; with SK-MEL-28 melanoma, 1.47 µM; with SN12C renal it was over 100 µM; with SR leukemia, 1.12 µM. Further, the TGI in the experiment on TK-10 renal was determined as 0.793 µM; in the experiment with U251 CNS, 1.19 µM; in the experiment with UACC-62 melanoma it was 0.596 µM.
For the compound `CCc1ccc(Oc2c(-c3ccc(OCCc4cccc(C(F)(F)F)c4)cc3O)n[nH]c2C(F)(F)F)cc1`, the GI50 is 1530 nM with HCT-116 colon; 1360 nM in the experiment with HOP-92 NSCLC; 4200 nM in the experiment with KM12 colon; 3700 nM with PC-3 prostate; 5.39 µM in the experiment on SK-MEL-28 melanoma; 2400 nM with SN12C renal. In addition, the GI50 in the experiment on SR leukemia was 3060 nM; in the experiment with TK-10 renal, 5.52 µM; in the experiment with U251 CNS it was 1810 nM; with UACC-62 melanoma, 3440 nM. Besides, the TGI with HCT-116 colon was found to be 5.47 µM; in the experiment with HOP-92 NSCLC, 5.01 µM; in the experiment with KM12 colon it was 10.8 µM; in the experiment with PC-3 prostate, 10.5 µM; in the experiment with SK-MEL-28 melanoma, 11.4 µM; in the experiment with SN12C renal it was 8.35 µM. Besides, the TGI is 12 µM in the experiment with SR leukemia, 11.5 µM in the experiment with TK-10 renal, 6.44 µM in the experiment with U251 CNS and 10.4 µM with UACC-62 melanoma.
On to `COc1ccc2[nH]c(C(=O)OCc3ccc4c(Br)cc(Br)c(O)c4n3)cc2c1`, for which the GI50 in the experiment with HCT-116 colon is 187 nM; in the experiment on HOP-92 NSCLC it was 352 nM; in the experiment on KM12 colon, 1640 nM; in the experiment with PC-3 prostate, 730 nM; with SK-MEL-28 melanoma, 1.26 µM; in the experiment on SN12C renal it was 617 nM. Further, the GI50 in the experiment with SR leukemia was 293 nM; in the experiment with TK-10 renal it was 1.39 µM; in the experiment on U251 CNS, 1490 nM; in the experiment on UACC-62 melanoma it was 1060 nM. For the same compound, the TGI in the experiment with HCT-116 colon is 0.543 µM; with HOP-92 NSCLC, 1.75 µM; in the experiment on KM12 colon, 3.38 µM; with PC-3 prostate, 2.27 µM; with SK-MEL-28 melanoma, 2.53 µM; with SN12C renal, 2.02 µM. The TGI is 2.04 µM in the experiment with SR leukemia, 2.71 µM with TK-10 renal, 2.92 µM in the experiment with U251 CNS and 2.29 µM in the experiment on UACC-62 melanoma.
`O=C(CCN1CCCCC1)c1csc2ccccc12`: the TGI in the experiment with HCT-116 colon, in the experiment with HOP-92 NSCLC, with KM12 colon, with PC-3 prostate, in the experiment on SK-MEL-28 melanoma and in the experiment on SN12C renal was over 100 µM in each case. For the same compound, the TGI in the experiment with SR leukemia, with TK-10 renal, in the experiment on U251 CNS and in the experiment with UACC-62 melanoma was over 100 µM in each case.
With `COc1ccc(OC)c(C2=C(c3cn(C)c4ccccc34)C(=O)NC2=O)c1`, the GI50 is over 25000 nM in the experiment with HCT-116 colon; over 25000 nM with HOP-92 NSCLC; 22400 nM with KM12 colon; over 25000 nM with PC-3 prostate; over 25 µM in the experiment on SK-MEL-28 melanoma; over 25000 nM in the experiment with SN12C renal. For the same compound, the GI50 is 16100 nM in the experiment with SR leukemia, over 25 µM in the experiment with TK-10 renal, over 25000 nM in the experiment with U251 CNS and over 25000 nM in the experiment with UACC-62 melanoma. In addition, the TGI in the experiment on HCT-116 colon, in the experiment with HOP-92 NSCLC, in the experiment with KM12 colon, in the experiment with PC-3 prostate, in the experiment with SK-MEL-28 melanoma and in the experiment on SN12C renal was over 25 µM throughout. The TGI in the experiment on SR leukemia, in the experiment on TK-10 renal, in the experiment on U251 CNS and in the experiment on UACC-62 melanoma was over 25 µM in each case.
For the compound `Nc1c(C(=O)Nc2cccc(Cl)c2)sc2nc3c(cc12)C(O)CCC3` (centres undefined), the GI50 in the experiment on HCT-116 colon was 440 nM; with HOP-92 NSCLC, 824 nM; in the experiment with KM12 colon, 397 nM; in the experiment with PC-3 prostate, 416 nM; in the experiment with SK-MEL-28 melanoma, 3.02 µM; in the experiment with SN12C renal, 773 nM. Besides, the GI50 in the experiment on SR leukemia is 258 nM; in the experiment with TK-10 renal it was 10.8 µM; with U251 CNS, 379 nM; with UACC-62 melanoma, 463 nM. Also, the TGI is 19.1 µM in the experiment with HCT-116 colon; 38.2 µM in the experiment with HOP-92 NSCLC; over 49.9 µM with KM12 colon; 25.2 µM in the experiment on PC-3 prostate; 59 µM in the experiment on SK-MEL-28 melanoma; over 100 µM in the experiment on SN12C renal. For the same compound, the TGI with SR leukemia was 28.6 µM; in the experiment on TK-10 renal it was 36.8 µM; with U251 CNS, 13.6 µM; in the experiment on UACC-62 melanoma it was 58.8 µM.
